Data as given in patent publication US6355430B1, “Diagnostic and screening methods employing KIAA0101” (Millennium Pharmaceuticals, Inc., priority 1998, dated 2002).

System: KIAA0101 expression in LNCaP cells
Experiment: Expression of KIAA0101 in LNCaP prostate cancer cells treated with casodex
Assay type: cell-based, human
Experimental: In order to examine the effect of casodex, an anti-androgen, on the expression of KIAA0101, LNCaP cells (androgen-sensitive prostate cancer cells) were grown to 70% confluence in RPMI-1640 (10% FBS). The cultures were then pretreated for 24 hours in dye-free RPMI-1640 containing 5% charcoal stripped serum. The cultures were then treated with either 1 nM R1881 or 100 […] casodex in RPMI-1640 containing 5% charcoal stripped serum prior to harvesting and extraction of total mRNA for expression analysis.

Compound: CC(O)(CS(=O)(=O)c1ccc(F)cc1)C(=O)Nc1ccc(C#N)c(C(F)(F)F)c1 (centres unmarked) [casodex]
- decrease (drop) in KIAA0101 expression (LNCaP cells (androgen-responsive prostate cancer cell line), in the presence of casodex): 3 fold
- KIAA0101 expression lower in the presence of casodex than in the presence of R1881 (LNCaP cells, casodex versus R1881 (androgen agonist, 1 nM)): 3 fold
